According to patent US20040131497A1, “PROCESS FOR STERILIZATION OF BIOLOGICAL COMPOSITIONS CONTAING PROTEIN” (priority 2002, published 2004):
Where two headings read alike, the source gives them in different places.

What was measured:
[1] = cited from earlier work
PRV=pseudorabies virus = settings: fibrinogen 5 g/L, UVC 254 nm, eight passes
Factor VIII = assay type: biochemical

SMILES | solubility in aqueous solutions [1] | Log reduction PRV (PRV=pseudorabies virus; stabiliser 0.5 mM) [Log] | Log reduction PRV (PRV=pseudorabies virus; stabiliser 1 mmol/l) [Log] | Log reduction PRV (PRV=pseudorabies virus; stabiliser 2 mmol/l) [Log] | PRV titer reduction (PRV) [Log] | decrease in FVIII activity (Factor VIII) [%]
C[C@@H]1O[C@@H](OC[C@H]2O[C@@H](Oc3c(-c4ccc(O)c(O)c4)oc4cc(O)cc(O)c4c3=O)[C@H](O)[C@@H](O)[C@@H]2O)[C@H](O)[C@H](O)[C@H]1O [rutin, reference compound] | poorly soluble in aqueous solutions | 3 | 3 | 2.5 |  | 
COc1cc(C=O)ccc1O [vanillin] |  | 5 | 5.5 | 5.5 | 5 | 10
